Here are results for eleven compounds from patent publication US4719220A, “15(R)-5-fluoroprostacyclins, pharmaceutical compositions and anti-thrombotic methods of use thereof” (G. D. Searle & Co., priority 1986, dated 1988).

Test [1] relates to mean blood pressure / platelet aggregation. To be noted: sodium salts, cited from earlier work; for ratio of blood pressure lowering activity and platelet aggregation inhibiting activity: dose for 20% lowering of mean blood pressure / minimum concentration for 50% inhibition of aggregation, PGI2 = 1; for platelet aggregation inhibition in comparison with blood pressure lowering, compared to PGI2: EP Publication No. 0054795.

Test [2] deals with ADP-induced platelet aggregation. Kind of test: In vitro ADP aggregation (platelet-rich plasma). The conditions noted are these: Table I; rat platelet-rich plasma, ADP 1-2 uM. It is filed as cell-based. Here is the method:
Rationale: The changes in optical density resulting from ADP-stimulation of platelet-rich plasma is used to identify compounds which inhibit or reverse platelet activation.
1. Platelet-rich plasma (PRP) is obtained from citrated whole rat blood.
2. Compound solutions are prepared at the initial screening dose of 1×1O^-4 M.
3. The prostacyclin (PGI2) standard is prepared in 0.lM NaOH-glycine (pH 10.0) over a range of 10^-9 -10^-8 M.
4. ADP in saline is added to PRP over a range of 1-2 uM to determine a concentration eliciting maximum aggregation within one minute.
5. PRP containing standard or test compound is preincubated for 1 minute and then stimulated with ADP. Vehicle controls are tested simultaneously.
6. The aggregation wave generated is monitored until the reversal phase is observed.
7. Platelet aggregation is quantified as the units of depth between the baseline and maximum depth.
8. Dose-response curves are generated for percent inhibition of ADP-induced platelet aggregation.
9. In vitro activity of the compounds screened is assessed by comparison of IC50 (M) with that of PGI2.

Test [3] concerns ADP-Thrombocytopenia (platelet numbers). Kind of test: In vivo ADP-thrombocytopenia. Further details: species or system rat. The conditions noted are these: rats; for In vivo (ADP-Thrombocytopenia) ED50: Table I, infusion right jugular vein five minutes, ADP 0.5 mg/kg; for Anti-Aggregatory in vivo (ADP-Thrombocytopenia) ED50: Table II. As for the experimental part:
In vivo ADP-thrombocytopenia
Vehicle/compound in saline is infused for five minutes in the right jugular vein of rats (400-500 g) anesthetized with pentobarbital. Adenosine diphosphate (0.5 mg/kg) in saline is immediately infused for one minute in the left jugular vein. Blood samples are drawn (1:10 into 3.8% citrate) and platelets counted on a Coulter counter and platelet numbers in treated animals are compared to controls. The ED50 (effectiVe dose in 50% of treated animals--μg/kg/minute) for compound activity is calculated from linear regression.

Test [4] has as its system mean arterial pressure. As to the kind of experiment: Hexamethonium Rat hypotensive activity (spontaneously hypertensive rats). To be noted: iv bolus. It is filed as in vivo. Here is the method:
Hexamethonium Rat (Duration)
Spontaneously hypertensive rats (300-400 g.) are anesthetized with 100 mg/kg barbital/25 mg/kg pentobarbital ip. The jugular vein and carotid artery are then cannulated with polyethylene-50 tubing (for drug administration and blood pressure measurement, respectively). A tracheotomy tube is inserted and animals breathe 100% O2 spontaneously. Body temperature is maintained at 37° C. with a thermister probe and heat lamp. Rats are then dosed with 1 mg/kg hexamethonium, iv bolus. After a 10-minute stabilization period, animals are dosed with compound. All compounds are dissolved in either glycine buffer or saline and given in a volume of 1 ml kg. Approximate ED50 doses are administered iv bolus and mean arterial pressure (MAP) is recorded every 30 seconds for 5 minutes, then every minute for a 15-20 minute period or until pressure returns to baseline. Changes in MAP (compared to pre-treatment values) are analyzed with a paired t-test.

Test [5] relates to mean arterial pressure. Kind of test: Hypotensive Activity in Normotensive Rats. It is filed as in vivo, normotensive Sprague-Dawley rats. To be noted: Table II; for ED (25 mm Hg): Rattus norvegicus, iv, bolus i.v., dose lowering pressure 25 mm Hg, read-out: Blood Pressure ED25; for Therapeutic Index (Blood Pressure ED25 / Anti-Aggregatory): ED25 blood pressure over ED50 ADP-thrombocytopenia. As for the experimental part: Hypotensive Activity in Normotensive Rats.
Normotensive Sprague-Dawley rats (weighing 400 to 500 g) are anesthetized wrth 100 mg/kg barbital/25 mg/kg pentobarbital intraperitoneally. The jugular vein and carotid artery are then cannulated with polyethylene-50 tubing (for drug administration and blood pressure measurement, respectively). A tracheotomy tube is inserted and animals breath 100% O2 spontaneously.
Also, body temperature is maintained at 37° C. with a thermister probe and heat lamp. After a 10 to 15 minute stabilization period, bolus i.v. injections of compound are given and responses (decrease in mean arterial pressure in mm Hg) are recorded. A linear regression analysis is then performed on the data to yield the following information:
EDO --threshold dose or dose at which an effect is first observed.
ED50 --the dose which causes 50% of the maximal response slope of the regression line in mm Hg.
When blood pressure lowering effects are minimal, an ED50 cannot be determined and, instead, an ED25 (dose which lowers the maximal pressure 25 mm Hg) is calculated.

For a further test, the system named is blood pressure. The conditions noted are these: U.S. Pat. No. 4,178,367; cited from earlier work.

Each structure is given as a SMILES string. pIC50: −log10 of the molar value. Structures can show the parent of a compound that is named as a salt.

What is called pIC50 is the negative decadic logarithm of the IC50, by convention in mol/L. High values mean a small IC50, low ones a large IC50.

On to `CCCCCC(O)C=CC1C(O)CC2OC(=C(Cl)CCCC(=O)[O-])CC21.[Na+]` (stereo not drawn) [5-chloro derivative, 5-chloro-PGI2 sodium salt], for which, in test [1], the “ratio of blood pressure lowering activity and platelet aggregation inhibiting activity” value is recorded as 4; the “platelet aggregation inhibition in comparison with blood pressure lowering, compared to PGI2” value is reported as “stronger activities with respect to the inhibition of platelet aggregation in comparison with their blood pressure lowering activities compared to PGI2”.

`CCCCCC(O)C=CC1C(O)CC2OC(=CCCCC(=O)[O-])C(F)C21.[Na+]` (stereo not drawn) [7-fluoro derivative, 7-fluoro-PGI2 sodium salt]: in test [1], the “ratio of blood pressure lowering activity and platelet aggregation inhibiting activity” value is 32; the “platelet aggregation inhibition in comparison with blood pressure lowering, compared to PGI2” value is given as “stronger activities with respect to the inhibition of platelet aggregation in comparison with their blood pressure lowering activities compared to PGI2”.

The compound `O=C(O)CCC/C(F)=C1/C[C@@H]2[C@@H](/C=C/[C@@H](O)C3CCCC3)[C@H](O)C[C@@H]2O1` [(5F,15S)] had a pIC50 in test [2] of 7.96. The “In vivo (ADP-Thrombocytopenia) ED50” value in test [3] stood at 0.87 µg/kg/min. Moreover, the “Blood Pressure Hexamethonium Rat, Blood Pressure/dose (decrease)” value with mean arterial pressure [4] (10 μg/kg) was -104 mm/Hg.

`O=C(O)CCC[C@@H](F)C1=C[C@@H]2[C@@H](/C=C/[C@H](O)C3CCCC3)[C@H](O)C[C@@H]2O1` [(5R,15R), 15-cyclopentyl-6,9α-Epoxy-5R-fluoro-11α,15R-dihydroxy-16,17,18,19,20-pentanorprosta-6,13E-dien-1-oic acid, sodium salt] had a negative-log IC50 (pIC50) in test [2] of 6.22. For the same compound, in test [3], the “In vivo (ADP-Thrombocytopenia) ED50” value is 2.3 µg/kg/min and the “Anti-Aggregatory in vivo (ADP-Thrombocytopenia) ED50” value was determined as 2.3 µg/kg/min. In the test with mean arterial pressure [5], the ED (25 mm Hg) amounted to 0.501 mg/kg and the “Therapeutic Index (Blood Pressure ED25 / Anti-Aggregatory)” value was found to be 217.8.

In turn, `O=C(O)CCC[C@@H](F)C1=C[C@@H]2[C@@H](/C=C/[C@@H](O)C3CCCC3)[C@H](O)C[C@@H]2O1` [(5R,15S)] had a pIC50 in test [2] of 6.72. In test [3], the “In vivo (ADP-Thrombocytopenia) ED50” value stood at 3.0 µg/kg/min and the “Anti-Aggregatory in vivo (ADP-Thrombocytopenia) ED50” value was determined as 3.0 µg/kg/min. Moreover, the “Blood Pressure Hexamethonium Rat, Blood Pressure/dose (decrease)” value with mean arterial pressure [4] (10 μg/kg) is recorded as -47 mm/Hg. Also, in the test with mean arterial pressure [5], the ED (25 mm Hg) worked out at 0.0026 mg/kg and the “Therapeutic Index (Blood Pressure ED25 / Anti-Aggregatory)” value amounted to 0.87.

In the case of `O=C(O)CCC[C@H](F)C1=C[C@@H]2[C@@H](/C=C/[C@H](O)C3CCCC3)[C@H](O)C[C@@H]2O1` [(5S,15R), 15-cyclopentyl-6,9α-Epoxy-5S-fluoro-11α, 15R-dihydroxy-16,17,18,19,20-pentanorprosta-6,13E-dien-1-oic acid, sodium salt], the pIC50 in test [2] was 5.07. Also, the “In vivo (ADP-Thrombocytopenia) ED50” value in test [3] turned out to be 3.3 µg/kg/min. Further, the “Blood Pressure Hexamethonium Rat, Blood Pressure/dose (decrease)” value in the test with mean arterial pressure [4] (100 μg/kg) is listed as “Inactive”.

For `O=C(O)CCC[C@H](F)C1=C[C@@H]2[C@@H](/C=C/[C@@H](O)C3CCCC3)[C@H](O)C[C@@H]2O1` [(5S,15S)], in test [2], the pIC50 was 7.00. In addition, the “In vivo (ADP-Thrombocytopenia) ED50” value in test [3] came out at 2.3 µg/kg/min. Besides, the “Blood Pressure Hexamethonium Rat, Blood Pressure/dose (decrease)” value in the test with mean arterial pressure [4] (10 μg/kg) was -42 mm/Hg.

`CCCC1CCC([C@H](O)/C=C/[C@@H]2[C@H]3C/C(=C/CCCC(=O)OC)O[C@H]3C[C@H]2O)C1` (stereo partly drawn) [(5Z, 13E)-(9α,11α,15S)-6,9-epoxy-11,15-dihydroxy-15-(3 propyl)cyclopentyl-16, 17, 18, 19, 20-pentanorprosta-5,13-dienoic acid methyl ester]: the “blood pressure lowering activity compared to a 15R derivative” value in the test with blood pressure was “greater blood pressure lowering activity”.

`O=C(O)CCC/C=C1/C[C@@H]2[C@@H](/C=C/[C@H](O)C3CCCC3)[C@H](O)C[C@@H]2O1` [(15R)] showed a negative-log IC50 (pIC50) in test [2] of 6.20. Besides, the “Blood Pressure Hexamethonium Rat, Blood Pressure/dose (decrease)” value in the test on mean arterial pressure [4] (100 μg/kg) was -76 mm/Hg.

As to `O=C(O)CCC/C=C1/C[C@@H]2[C@@H](/C=C/[C@@H](O)C3CCCC3)[C@H](O)C[C@@H]2O1` [(15S)], the pIC50 in test [2] is 7.12. In the test with mean arterial pressure [4] (0.2 μg/kg), the “Blood Pressure Hexamethonium Rat, Blood Pressure/dose (decrease)” value is on record as -83 mm/Hg.

Consider `CCCCC[C@H](O)/C=C/[C@@H]1[C@H]2C/C(=C/CCCC(=O)O)O[C@H]2C[C@H]1O` [PGI2, (5Z)-9-deoxy-6,9α-epoxy-Δ^5 -PGF1], for which the “ratio of blood pressure lowering activity and platelet aggregation inhibiting activity” value in test [1] is recorded as 1.
